Experimental data taken from patent publication US9265746B2, “Method for cell-specific targeting” (priority 2006, dated 2016).

System: KB-cell xenografts
Assay: Biodistribution of folate radiotracers in athymic nude mice bearing KB-cell xenografts, with or without antifolate
Format: in vivo
Settings: 4 h p.i.; antifolate named in label pre-injected 1 h before radiotracer
Experimental: Preparation of cells for in vivo experiments: For subcutaneous inoculation of the mice sub-confluent cells were harvested by treatment with EDTA (1 mM) in PBS (1×, pH 7.4). The cells were then washed once with PBS and pelleted by spinning at 1000×g for 5 min at 20° C. The cells were resuspended in PBS to obtain a concentration of 50×10^6 cells/mL.
In Vivo Studies. 4-5-week-old female, athymic nude mice (CD1-Foxn1/nu) were purchased from Charles River Laboratories (Sulzfeld, Germany). Mice were housed under conditions of controlled temperature (26° C.), humidity (68%) and daily light cycle (12 h light/12 h dark). The animals were fed with a folate-deficient rodent diet (to reduce their serum folate to a level near that of humans) (Mathias et al, J. Nucl. Med. 1996; 37:1003-08). After an acclimation period of 5-7 days, the mice were inoculated subcutaneously with the tumour cell suspension (5×10^6 cells) into the subcutis of the axilla. Radiotracer distribution studies were performed 12-14 days after tumour cell inoculation. The radiotracer (100 μL, 1a: 3.5 MBq/mL or 1b: 7 MBq/mL) was administered via a lateral tail vein. Antifolates (MTX, RTX and PMX) were dosed according to literature experiments at the upper limit of the tolerated dose (Li et al, Clin. Exp. Pharmacol. Physiol. 2004; 31:267-70; Pritchard et al, Clin. Cancer Res. 2000; 6:4389-95; Hughes et al, Journal of Clinical Oncology 2002; 20:3533-44; Aherne et al, Br. J. Cancer 1998; 77:221-26). MTX was supplemented to the drinking water (80 mg/mL) or intravenously injected (400 μg), 24 h, 2 h, 1 h, 30 min and 15 min previous to the administration of radiotracer 1a. RTX (100 μg) and PMX (400 μg) respectively were administered intravenously 2 h, 1 h, 30 min and 15 min previous to the radiotracer 1a. The animals were sacrificed and dissected 4 h p.i. of the radiotracer 1a. Additional biodistribution experiments were performed (30 min), 1 h, 4 h and 24 h post injection of the radiotracer 1a or 1b respectively with (antifolate) pre-treated animals 1 h previous to the experiment. The selected tissues were removed, weighted, and counted for radioactivity to determine distribution of radioactivity within the test animal. The results were tabulated as percentage of the injected dose per gram (% ID/g) of weight tissue, using reference counts from a definite sample of the original injectate.

| Compound | biodistribution blood [% ID/g] | biodistribution bone [% ID/g] | biodistribution contents of intest. [% ID/g] | biodistribution heart [% ID/g] | biodistribution intestines [% ID/g] | biodistribution kidney [% ID/g] | biodistribution liver [% ID/g] | biodistribution lung [% ID/g] | biodistribution muscle [% ID/g] | biodistribution spleen [% ID/g] | biodistribution stomach [% ID/g] | biodistribution tumour [% ID/g] | tumour-to-blood | tumour-to-kidney | tumour-to-liver |
| --- | --- | --- | --- | --- | --- | --- | --- | --- | --- | --- | --- | --- | --- | --- | --- |
| Nc1nc2ncc(CNc3ccc(C(=O)NC(CCC(=O)NCCCCCCn4cc5[n+](c4)[99Tc-5]4([C]#[O+])([C]#[O+])([C]#[O+])[NH2+]C(C5)C(=O)[O]4)C(=O)O)cc3)nc2c(=O)[nH]1 (stereo not drawn) [radiotracer 2a] | 0.19 ± 0.18 | 0.82 ± 0.13 | 7.72 ± 4.36 | 0.80 ± 0.60 | 0.79 ± 0.43 | 42.02 ± 7.31 | 4.51 ± 1.29 | 0.85 ± 0.08 | 1.31 ± 0.28 | 0.30 ± 0.05 | 0.62 ± 0.22 | 3.72 ± 0.89 | 12.29 ± 4.22 | 0.09 ± 0.02 | 0.88 ± 0.38 |
| Nc1nc2ncc(CNc3ccc(C(=O)NC(CCC(=O)NCCCCCC[N+]45Cc6cccc[n+]6[99Tc-5]4([C]#[O+])([C]#[O+])([C]#[O+])[n+]4ccccc4C5)C(=O)O)cc3)nc2c(=O)[nH]1 (stereo not drawn) [radiotracer 3a] | 0.03 ± 0.01 | 0.16 ± 0.02 | 2.49 ± 12.10 | 0.20 ± 0.09 | 0.71 ± 0.40 | 7.11 ± 0.75 | 1.72 ± 2.04 | 0.20 ± 0.02 | 0.27 ± 0.01 | 0.08 ± 0.02 | 0.54 ± 0.58 | 0.82 ± 0.27 | 27.00 ± 14.60 | 0.12 ± 0.05 | 1.24 ± 1.03 |
